# What was measured:
# Format in all cases: cell-based
# [1] = tested on: Pseudomonas aeruginosa, ATCC 9027; test: Sanitization study 3: dual adapter strokes, 100 mM PAA in flush channel, resin valve opened and closed twice, 6 day clean hold
# Protocol: (§1) A predefined sanitization method based on peracetic acid (PAA) as sanitization agent was evaluated in an AxiChrom™ 300 column (GE Healthcare) packed with agarose beads, as used in the MabSelect™ SuRe Protein A resin (GE Healthcare), by triplicate studies using P. aeruginosa as challenging organism. All parts in contact with the process flow including the resin were pre-cleaned, challenged, sanitized and evaluated. Microbial sampling was performed at predetermined sites on the system. Flow through samples were collected from the process chamber during the run and from the flush channel, process chamber and resin valve after finishing the sanitization method. Additional flow through samples were collected after five to six days of clean hold. Test methods used are presented below. The results were evaluated against stated acceptance criteria.
# (§2) Pseudomonas aeruginosa, ATCC 9027, Gram negative bacteria
# (§3) 1×10^7 CFU/ml or CFU/unit (CFU=Colony forming unit) […]
# (§4) TSA plates streaked with P. aeruginosa ATCC 9027 (in-house glycerol stocks) were incubated in 37° C. over night (O.N.). […] O.N. Based on measured optical densities (ODs) of the inoculates and the assumption that 1 OD≈2×10^9 CFU/mL for P. aeruginosa, calculations were made on the volumes needed of the inoculate to be added to the resin slurry suspended in 50 mM NaCl. […] The microorganism concentrations were determined with test method 5. […]
# [2] = tested on: Pseudomonas aeruginosa, ATCC 9027; test: Sanitization study 1: AxiChrom 300 column packed with resin inoculated with challenging organism, sanitized with peracetic acid
# Protocol: as §1, §2, §3, §4
# [3] = tested on: Pseudomonas aeruginosa, ATCC 9027; test: Sanitization study 2: dual adapter strokes, 100 mM PAA in flush channel, slurry chased with 20 mM PAA, 5 day clean hold
# Protocol: as §1, §2, §3, §4
compound,measurement,setting,value
"CC(=O)OO [PAA, peracetic acid]","Outcome against acceptance criteria, study 3",[1],met the acceptance criteria
same,"Challenging organism found after sanitization, study 3",[1]; all sampling points,no challenging organism was discovered
same,"Outcome against acceptance criteria, study 1",[2],did not meet the acceptance criteria
same,"Result study 1, resin after sanitization","[2]; test method 6 agar plate, 20 mM PAA",0 CFU/g
same,"Outcome against acceptance criteria, study 2",[3]; positive control G showed no challenging organism,did meet the acceptance criteria
same,"Result study 2, challenging organism in consolidation effluent / water rinse flowthrough after chasing slurry with 20 mM PAA","[3]; test method 5 viable count, samples G and J, before the sanitization method",0 CFU/mL

# — patent US12280168B2, “Method for sanitization of a chromatography column” (Cytiva Sweden AB, priority 2019, dated 2025)
